According to PMC6558205 (Frontiers in Pharmacology, 2019):

How the values were obtained:
[1] = Solubility limit seen in inhibition curves; type: physicochemical; details: complete inhibition curves not obtained in Gi antagonism assay
[2] = target: T1, human long isoform of D2 receptor (D2LR) (Homo sapiens, UniProt P14416); assay: BRET assay of Gi activation, agonistic effect at the D2R canonical pathway, in HEK-293T cells; type: cell-based; details: BRET signal after 5 min stimulation, decrease = activation
T1 construct: expressed in transfected cells; host or cells: HEK293T
T1 sequence (P14416 whole entry, canonical isoform): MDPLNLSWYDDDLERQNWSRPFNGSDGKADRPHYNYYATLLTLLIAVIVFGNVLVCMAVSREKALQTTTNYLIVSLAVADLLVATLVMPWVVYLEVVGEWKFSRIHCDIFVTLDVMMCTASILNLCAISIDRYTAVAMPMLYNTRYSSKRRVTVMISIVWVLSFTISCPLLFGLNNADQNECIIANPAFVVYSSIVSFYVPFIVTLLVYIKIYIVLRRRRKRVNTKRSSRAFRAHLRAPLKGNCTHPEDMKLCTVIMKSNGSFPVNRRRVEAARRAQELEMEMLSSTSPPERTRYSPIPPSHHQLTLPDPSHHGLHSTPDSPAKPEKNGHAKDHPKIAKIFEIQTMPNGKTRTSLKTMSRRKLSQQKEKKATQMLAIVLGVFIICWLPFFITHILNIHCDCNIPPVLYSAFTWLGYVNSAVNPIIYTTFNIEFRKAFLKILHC
Description: HEK293T cells were cultured in Dulbecco’s modified eagle medium (DMEM) supplemented with 10% fetal bovine serum and 100 U/mL penicillin/streptomycin at 37°C in 5% CO2. Forty-eight hours before the experiments, cells were transfected in suspension, using polyethylenimine (PEI; 25 kDa linear; Polysciences, Warrington, PA, USA) at a ratio of 3:1 PEI/DNA, and directly seeded in 96-well white plates (OptiPlate; PerkinElmer) at a density of 4 × 10^4 cells/well and at 37°C in 5% CO2. When needed, total DNA amount was adjusted with salmon sperm DNA (Invitrogen, Carlsbad, CA, USA).

[3] = target: T1, human long isoform of D2 receptor (D2LR); assay: BRET assay of inhibition of dopamine-induced Gi activation in HEK-293T cells; type: cell-based; details: 100 nM dopamine; for Ki: Ki (nM) (95% CI), apparent affinity, IC50 corrected by Cheng–Prusoff, HEK-293T; for I max for inhibition of the dopamine effect on Gi: text summary over 5 and 20 min
Description: (§1) Then, for every compound, we calculate the ratios of their K i and I max values for the two pathways.

[4] = target: T1, human long isoform of D2 receptor (D2LR); assay: ebBRET assay of inhibition of dopamine-induced β-arrestin-2 translocation in HEK-293T cells; type: cell-based; details: 10 µM dopamine; for Ki: Ki (nM) (95% CI), apparent affinity, IC50 corrected by Cheng–Prusoff, HEK-293T
Description: as §1

[5] = target: T1, human long isoform of D2 receptor (D2LR); assay: Estimation of functional selectivity between Gi and β-arr2 pathways (ratios of Ki, Imax, Imax/Ki); type: cell-based
Description: as §1

Clc1ccc(-n2cc(CN3CCN(c4ccccc4)CC3)cn2)cc1 [LASSBio-579, 1-((1-(4-chlorophenyl)-1H-pyrazol-4-yl)methyl)-4-phenylpiperazine]
Solubility [1]: lack of solubility at higher concentrations
E max for Gi activation (change in BRET signal) [2]: −0.07
I max (% dopamine effect) ± S.E.M., 5 min Gi ([3]; 5 min): 75.1 ± 16.3 % dopamine effect
I max (% dopamine effect) ± S.E.M., 20 min Gi ([3]; 20 min): 72.4 ± 9.8 % dopamine effect
Ki ([3]; 5 min Gi, 5 min): 118 nM
Ki ([3]; 20 min Gi, 20 min): 66.7 nM
I max for inhibition of the dopamine effect on Gi [3]: 70–80%
I max (% dopamine effect) ± S.E.M., 5 min β-arr ([4]; 5 min): 148 ± 20 % dopamine effect
I max (% dopamine effect) ± S.E.M., 20 min β-arr ([4]; 20 min): 129 ± 12 % dopamine effect
Ki ([4]; 5 min β-arr, 5 min): 109 nM
Ki ([4]; 20 min β-arr, 20 min): 41.6 nM
Imax (Gi)/Imax (β-arr) ([5]; 5 min): 0.51
Ki (Gi)/Ki (β-arr) ([5]; 5 min): 1.08
Imax (Gi)/Imax (β-arr) ([5]; 20 min): 0.56
Ki (Gi)/Ki (β-arr) ([5]; 20 min): 1.60

Oc1ccc(N2CCN(Cc3cnn(-c4ccc(Cl)cc4)c3)CC2)cc1 [LQFM 037]
Solubility [1]: lack of solubility at higher concentrations
E max for Gi activation (change in BRET signal) [2]: −0.04
I max (% dopamine effect) ± S.E.M., 5 min Gi ([3]; 5 min): 78.9 ± 19.2 % dopamine effect
I max (% dopamine effect) ± S.E.M., 20 min Gi ([3]; 20 min): 71.6 ± 13.7 % dopamine effect
Ki ([3]; 5 min Gi, 5 min): 263 nM
Ki ([3]; 20 min Gi, 20 min): 190 nM
I max for inhibition of the dopamine effect on Gi [3]: 70–80%
I max (% dopamine effect) ± S.E.M., 5 min β-arr ([4]; 5 min): 71.3 ± 12.3 % dopamine effect
I max (% dopamine effect) ± S.E.M., 20 min β-arr ([4]; 20 min): 94.2 ± 7.4 % dopamine effect
Ki ([4]; 5 min β-arr, 5 min): 353 nM
Ki ([4]; 20 min β-arr, 20 min): 209 nM
Imax (Gi)/Imax (β-arr) ([5]; 5 min): 1.11
Ki (Gi)/Ki (β-arr) ([5]; 5 min): 0.74
Imax (Gi)/Imax (β-arr) ([5]; 20 min): 0.76
Ki (Gi)/Ki (β-arr) ([5]; 20 min): 0.91
